Measured values taken from patent US9814758B2, “Inhibitors of apoptosis and uses thereof” (CENTRE NATIONAL DE LA RECHERCHE SCIENTIFIQUE-CNRS, priority 2010, dated 2017).
Non-standard residues stand in square brackets, D forms with d. Residues, ends and D or L forms follow the SMILES beside them. No end group written: not given here. Ahx = NCCCCCC(=O)O

Tests used:
[1] = system: H9c2 cells; experiment: STS-induced DNA fragmentation (Cell Death detection ELISA PLUS) in H9c2 cells; format: cell-based, rat; settings: rat H9c2 (model for cardiac cells); FIG. 5C
Experimental: FIG. 5: In vitro evaluation of the anti-apoptotic activity of CPPs and CPP-conjugates. Workflow and quantitation of DNA fragmentation in (A) C2C12 cells, (B) primary cardiomyocytes, (C) H9c2 cells and (D) NG108-15 cells. Data were normalized to 100% STS. Data shown are the means±SEM, with n≧5. Cells were seeded in 24-well plates and grown overnight. The next day, the cells were incubated with STS alone or with STS+1 μM peptide (in OPTI-MEM) (OPTI-MEM® is a modification of Eagle's Minimum Essential Media, buffered with HEPES and sodium bicarbonate, and supplemented with hypoxanthine, thymidine, sodium pyruvate, L-glutamine, trace elements, and growth factors) (STS concentration and incubation time for each cells are given in the figure). Thereafter, solutions were removed, replaced by complete medium and further incubated for 40 h. Following the regeneration phase, the cells were lyzed and DNA fragmentation was detected according to manufacturer's instructions (Cell Death detection ELISA^PLUS kit—Roche Diagnostics). […]
Thereafter, the capacity of these peptides to inhibit apoptosis induced by staurosporine was evaluated. Apoptosis was determined using the Cell Death detection ELISA^PLUS kit (Roche) measuring the DNA fragmentation.
The anti-apoptotic effects of the peptides were also analyzed in murine NG118-15 (model for neuronal cells) (FIG. 5D), in murine C2C12 (model for muscle cells) (FIG. 5A) and in rat H9c2 (model for cardiac cells) (FIG. 5C). The highest reduction in DNA fragmentation were observed using Bpep-DAXXp in NG118-15 (66% reduction) using Tat-DAXXp in C2C12 (24% reduction) and Pip2b-DAXXp in H9c2 (31% reduction).

[2] = system: C57Bl6 mice, myocardial ischemia-reperfusion; experiment: Myocardial ischemia-reperfusion IR24h (40 min ischemia, 24 h reperfusion); format: in vivo, mouse; settings: reperfusion prolonged from 1 hour to 24 hours
Experimental: FIG. 11: In vivo experimental protocol. C57Bl6 mice underwent a surgical protocol of myocardial ischemia-reperfusion (IR). The black box represents the period of ischemia to which the mice were submitted. Infarct size or cell death measurements were performed at the end of surgery for each protocol (indicated by ↑). IR60′: 40 minutes of Ischemia, 60 minutes of Reperfusion. IR24h: 40 minutes Ischemia and 24 hours Reperfusion.
FIG. 14: Cardioprotective effects of Tat-DAXXp (1 mg/kg-IV) in mice subjected to IR24h. Infarct size (in % of area at risk) and internucleosomal DNA fragmentation determined by ELISA were quantified in mice subjected to IR24H and treated with Tat, Tat-DAXXp or Tat-scrDAXXp (1 mg/kg) as well as with DAXXp (10 mg/kg) (IV injection 5 minutes before reperfusion). […]
FIG. 15: Dose response for Tat-DAXXp and DAXXp in mice subjected to IR24h. Area at risk and infarct size (in % of area at risk) were measured in mice subjected to IR24h and treated by Tat (1 mg/kg), Tat-DAXXp (0.1, 1 and 10 mg/kg) or DAXXp (0.1, 1 and 10 mg/kg) injected intravenously 5 minutes before reperfusion. […]
In a second step, the cardioprotective effects of DAXXp were evaluated in an in vivo model of myocardial ischemia-reperfusion. […]

## CC[C@H](C)[C@H](NC(=O)[C@H](Cc1c[nH]cn1)NC(=O)[C@@H](NC(=O)[C@H](CCCNC(=N)N)NC(=O)CCCCCNC(=O)[C@H](CCCNC(=N)N)NC(=O)[C@H](CCCNC(=N)N)NC(=O)CCCCCNC(=O)[C@H](CCCNC(=N)N)NC(=O)[C@H](CCCNC(=N)N)NC(=O)CCCCCNC(=O)[C@@H](N)CCCNC(=N)N)[C@@H](C)CC)C(=O)N[C@@H](CC(C)C)C(=O)N[C@@H](Cc1ccccc1)C(=O)N[C@@H](CCC(N)=O)C(=O)N[C@@H](CC(N)=O)C(=O)N[C@H](CCCNC(=N)N)C(=O)N[C@@H](CCCNC(=N)N)C(=O)N[C@@H](CCSC)C(=O)N[C@@H](CCCCN)C(=O)N[C@@H](Cc1c[nH]c2ccccc12)C(=O)N[C@@H](Cc1c[nH]cn1)C(=O)N[C@@H](CCCCN)C(=O)N[C@@H](CCCCN)C(=O)N[C@@H](CCCCN)C(=O)N[C@@H](CO)C(=O)N[C@@H](CCCNC(=N)N)C(=O)N[C@@H](CCCCN)C(=O)N[C@@H](CCC(=O)O)C(=O)N[C@@H](CCCCN)C(=O)N[C@@H](CCCCN)C(=O)N[C@@H](CCC(N)=O)C(=O)N[C@H](C(=O)NCC(=O)N[C@@H](CO)C(=O)NCC(=O)N1CCC[C@H]1C(=O)N[C@@H](CC(C)C)C(=O)NCC(N)=O)[C@@H](C)O [Pip2b-DAXXp, (RXR)3-IHILFQNrRMKWHK-KKSRKEKKQTGSGPLG-NH2] (H-R[Ahx]RR[Ahx]RR[Ahx]RIHILFQN[dR]RMKWHKKKSRKEKKQTGSGPLG-NH2; N-terminus assumed)
[1]
  reduction in DNA fragmentation: 31%

## GRKKRRQRRRPPQKKSRKEKKQTGSGPLG-NH2 [Tat-DAXXp, GRKKRRQRRRPPQ-KKSRKEKKQTGSGPLG-NH2]
[2]
  cardioprotective effects at prolonged reperfusion: maintained
